Test system: neuS gene product of E.coli K92 expressed in BL21(DE3)
Experiment: Sialyltransferase assay: substrate specificity for acceptor substrates (transfer of 14C-NeuAc from CMP[14C]NeuAc)
Format: biochemical
Conditions: for Total sialic acid transferred / cpm obtained (per 60 ul reaction): 1 (M acceptor, 9 nmol CMP[14C]NeuAc (8000 cpm/nmol) as donor, 37 °C, 1 hr, 20 (g of 40K Sup; for Total sialic acid transferred: per 60 ul reaction; for cpm obtained (per 60 ul reaction): product spot on DEAE-cellulose TLC counted; for suitability as acceptor substrate (in words): cell-free fractions (15 K Sup, 40 K Sup, pellet), CMP[14C]NeuAc as donor
Procedure: The assay was carried out essentially as described by Vimr et al (Steenbergen, S. M. et al. (1992) J. Bacteriol. 174 : 1099-1108) with the following modifications : after harvesting, the cells were washed three times with 25 mM Tris HCI (pH 8. 0) and then resuspended in 25 mM Tris HCl (pH 8. 0) containing 5 mM MgCl2, 5 mM dithiothreitol (DTT), and 1 (1/mL protease inhibitor cocktail (Sigma). Cells were lysed three times by using a French Press (AMINCO; 1, 500 psi). The cell debris was removed by centrifugation twice at 15, 000 rpm and the supernatant was collected (termed the 15 K Sup). This supernatant was then centrifuged again at 100,000x g (~ 40 K rpm) using a Beckman ultracentrifuge (Model L5-50). Both the supernatant (termed the 40 K Sup) and the pellet were saved. The pellet was resuspended in a buffer containing 25 mM Tris-HCI, 5 mM MgCl2, 5 mM DTT, and 0.1% Triton CF-54. The supernatants and the pellet were stored on ice, and used for assay within 2 h.
Without the addition of acceptor, the endogenous enzyme activity was determined. The exogenous activity was then detected by addition of sialic acid as acceptor and CMP[^14C]NeuAc as donor in a reaction buffer containing 25 mM Tris-HCl (pH 8.0), 5 mM MgCl2, 5 mM DTT, and 0.5% Triton CF-54. Other substrates were also used, including colominic acid. Both the endogenous and exogenous enzyme activity assays measure the transfer of ^14C-labeled NeuAc to the acceptor. Unreacted radiolabeled substrates were seperated by DEAE-cellulose TLC (n-propanol/14M NH4OH/H2O:: 6 : 1: 3) or by Sephadex G-25 column chromatography. Radioactivity remaining at the origin and/or at the top of the TLC plate or the product obtained at the void volume of Sephadex G-25 column, was quantitated by liquid scintillation spectrometry. For analysis using Sephadex G-25 column chromatography, a column (1 cm x 3.5 cm) of Sephadex G-25 (Pharmacia) in water was prepared. The radiolabeled cell-free reaction mixture (60 (1) was loaded and washed with 1.5 ml of water, which was collected and counted. In some experiments, the activity was determined by separating the unused CMP[^14C]NeuAc by Dowex 1X8 (phosphate form) column chromatography (Williams, M. A. et al. (1995) Glycoconj. J. 12: 755 - 761). The initial rates were estimated graphically, and activity was expressed as pmoles of sialic acid transferred per hour.
The reaction mixture (60 (l) contained 1 (M each of the following acceptors and 9 nmol of CMP[^14C]NeuAc (specific activity: 8000 cpm/nmol) as donor substrate. The reactions were carried out at 37 °C for 1 hr using 20 (g of 40K Sup as mentioned in 'Materials and Methods.' The reaction mixture (1 (1) was spotted on a plastic backed DEAE-cellulose TLC plate, and ran in n-propanol:14.5M NH4OH:water :: 6:1:3. After air-drying, the plate was exposed to Kodak's XAR-5 film for overnight at -70° C. The area corresponding to the reaction product was marked, cut and then counted in scintillation fluid.

Compound | Total sialic acid transferred [pmol] | cpm obtained (per 60 ul reaction) [cpm] | suitability as acceptor substrate (in words) | suitability as acceptor substrate (in words) (listed as neuraminic acid)
CC(=O)N[C@H]1[C@H]([C@H](O)[C@H](O)CO)O[C@@](O[C@H](CO)[C@@H](O)[C@@H]2O[C@@](O[C@H](CO)[C@@H](O)[C@@H]3OC(O)(C(=O)O)C[C@H](O)[C@H]3NC(C)=O)(C(=O)O)C[C@H](O)[C@H]2NC(C)=O)(C(=O)O)C[C@@H]1O (stereo partly drawn) [Trimer] | 140 | 1560 | poor acceptors | 
CC(=O)N[C@H]1[C@H]([C@H](O)[C@H](O)CO)OC(O)(C(=O)O)C[C@@H]1O (stereo partly drawn) [Monomer, sialic acid] | 470 | 3780 | good acceptors | best substrate
CC(=O)N[C@H]1[C@H]([C@H](O)[C@H](O)COC(C)=O)OC(O)(C(=O)O)C[C@@H]1O (stereo partly drawn) [9-O-acetyl sialic acid] | 110 | 900 | not well accepted | 
CC(=O)N[C@H]1[C@H]([C@H](O)[C@H](O)CO)O[C@@](O[C@H](CO)[C@@H](O)[C@@H]2OC(O)(C(=O)O)C[C@H](O)[C@H]2NC(C)=O)(C(=O)O)C[C@@H]1O (stereo partly drawn) [Dimer] | 140 | 1080 | poor acceptors | 
GT1b | 130 | 1140 |  | 
